This is an account of results in article PMC7408095 (Pharmaceutics, 2020).

Data set [1] can be described thus: Plasma pharmacokinetics of atorvastatin, 2-OH AT and 4-OH AT in rats (UPLC-MS/MS). Conditions: for AUC0-t / AUC0-∞ / Cmax / metabolite/atorvastatin Cmax ratio: rat plasma.
Procedure: (§1) The concentration of each of the working solutions was 10 μg/mL. The sample preparation involved liquid-liquid extraction. […] The analytes were separated in a Zorbax Plus C18 column (100 × 2.1 mm; 3.5 μm) (Agilent Technologies, Santa Clara, California, USA) at a column temperature of 40 °C. The mobile phase was a mixture of de-ionized water (A) and acetonitrile (B), both containing 0.1% (v/v) formic acid. […] The mobile phase flow was set to 0.3 mL/min. The eluent from the HPLC column was introduced directly to the MS interface, using electrospray ionization in the positive ion mode. The MS parameters were as follows: interface temperature, 350 °C; DL temperature, 250 °C; heat block temperature, 400 °C; nebulizing gas flow, 2 L/min; and drying gas flow, 15 L/min. The electrospray needle voltage was 3.5 kV. The specific transitions for the analytes were monitored using the multiple reaction monitoring (MRM) mode.
For data set [2] the following is noted: rat, in vivo, po, 20 mg/kg.
Procedure: as §1
The conditions of data set [3]: rat, in vivo, 20 mg/kg; cited from earlier work.
Data set [4] is described as follows: Adverse effects of the doses used in healthy rats. In kind it is in vivo.
The conditions of data set [5]: rat, in vivo, po, 100 mg/kg.
Source text: (§2) The Phoenix® WinNonlin version 8.0 software (Certara, Princeton, New Jersey, USA) was used for the calculation of the following pharmacokinetic parameters: • The elimination rate constant (ke); • The absorption rate constant (ka); • The elimination half-life (t1/2); • The maximum plasma concentration (Cmax); • The time to reach the Cmax (tmax); • The total area under the concentration–time curve (AUC0-t and AUC0--∞); • The apparent plasma drug clearance (Cl/F); • The apparent volume of distribution (Vd/F).
A short description of data set [6]: Plasma pharmacokinetics of sorafenib and sorafenib N-oxide in rats (HPLC-UV).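 On all read-outs here: pharmacokinetic parameters were computed with Phoenix WinNonlin 8.0 software from the plasma concentration–time curve.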 Conditions: for AUC0-t / AUC(0-inf) / Cmax / Vd/F / k el / half-life: male, Wistar, rat, plasma, po, 100 mg/kg; for AUC0-t / AUC(0-inf) / Cmax / Vd/F / k el / ka: rat plasma; for AUC(0-inf): AUC0-∞; for k el: kel; for half-life: t1/2, rat plasma.
Source text: as §2
For data set [7] the following is noted: cited from earlier work.
For data set [8] the following is noted: cited from earlier work. The source holds these as a separate data set.
Data set [9] in a line: Plasma pharmacokinetics of metformin in rats (HPLC-UV).
Source text: as §2
A further data set in a line: in vivo. Conditions: male, Wistar, rat, plasma, po, 100 mg/kg.
Where [10] appears, read: single oral atorvastatin 20 mg/kg b.w. alone (IVAT group).
[11] abbreviates: single oral sorafenib 100 mg/kg + atorvastatin 20 mg/kg b.w. (ISOR+AT group).
[12] abbreviates: rats, ISOR+AT group vs IVAT group.
[13] abbreviates: single oral sorafenib 100 mg/kg + metformin 100 mg/kg b.w. (IISOR+MET group).
Setting [14] is: single oral sorafenib 100 mg/kg b.w. alone (IIISOR group).
Where [15] appears, read: rats, IISOR+MET group vs IIISOR group.
Where [16] appears, read: rats, ISOR+AT group vs IIISOR group.
The mark [17] stands for this setting: rat plasma, single oral sorafenib 100 mg/kg + metformin 100 mg/kg b.w. (IISOR+MET group).

For orientation: AUC(0-inf) means the area under the concentration-time curve extrapolated to infinity. For orientation: half-life means how long it takes for the measured level to halve. By MRT last is commonly meant a mean duration of stay, worked out from the concentration-time curve.

Like-named read-outs stand apart in the source and are kept apart here.

Source text for in vivo: as §2

With `CC(C)c1c(C(=O)Nc2ccccc2O)c(-c2ccccc2)c(-c2ccc(F)cc2)n1CCC(O)CC(O)CC(=O)O` (stereo not drawn) [2-OH AT, 2-hydroxy atorvastatin], in data set [1] (setting [10]), the AUC0-t is reported as 617.32 ± 277.54 (45.0) ng × h/mL, the “AUC0-∞” value is 695.68 ± 297.16 (42.7) ng × h/mL, the Cmax is on record as 175.20 ± 116.62 (66.6) ng/mL and the “metabolite/atorvastatin Cmax ratio” value is reported as 2.35 ± 1.12 (47.6) ng/mL. For the same compound, in [1] (setting [11]), the AUC0-t was 958.91 ± 342.91 (35.8) ng × h/mL, the “AUC0-∞” value is listed as 993.97 ± 343.87 (34.6) ng × h/mL, the Cmax is 185.82 ± 90.16 (48.5) ng/mL and the “metabolite/atorvastatin Cmax ratio” value is recorded as 2.43 ± 1.06 (43.6) ng/mL. Moreover, in data set [1] (setting [12]), the “change in the 2-OH AT/atorvastatin ratio for AUC0-t” value is −19.4%, the “change in the 2-OH AT/atorvastatin ratio for AUC0-∞” value is recorded as −26.0% and the “increase in AUC caused by sorafenib (abstract)” value stood at 55.3%.

For the compound `CC(C)c1c(C(=O)Nc2ccc(O)cc2)c(-c2ccccc2)c(-c2ccc(F)cc2)n1CC[C@@H](O)C[C@@H](O)CC(=O)O` [4-OH AT, 4-hydroxy atorvastatin], in data set [2], the AUC0-t is recorded as 14.63 ± 5.57 (38.1) ng × h/mL and the “AUC0-∞” value was 19.22 ± 7.06 (36.7) ng × h/mL.

Regarding `CC(C)c1c(C(=O)Nc2ccccc2)c(-c2ccccc2)c(-c2ccc(F)cc2)n1CC[C@@H](O)C[C@@H](O)CC(=O)O` [Atorvastatin, atorvastatin], the safety result in data set [3] is “safe”. In addition, the adverse effects result in data set [4] (20 mg/kg single oral dose) is listed as “did not cause any adverse effects”.

For `CNC(=O)c1cc(Oc2ccc(NC(=O)Nc3ccc(Cl)c(C(F)(F)F)c3)cc2)cc[n+]1[O-]` [Sorafenib N-oxide, sorafenib N-oxide], in data set [5], the AUC0-t is recorded as 4.10 ± 1.56 (38.1) µg × h/mL, the “AUC0-∞” value is 8.61 ± 2.19 (25.4) µg × h/mL, the k el was 0.016 ± 0.010 (60.9) h^−1 and the tmax was 16.38 ± 8.21 (50.1) h.

With `CNC(=O)c1cc(Oc2ccc(NC(=O)Nc3ccc(Cl)c(C(F)(F)F)c3)cc2)ccn1` [Sorafenib, sorafenib], in [6] (setting [11]), the AUC0-t was determined as 105000 ± 18900 ng·h/mL, the AUC(0-inf) came out at 106000 ± 19300 ng·h/mL, the Cmax turned out to be 3660 ± 1210 ng/mL and the Vd/F is 9.98 ± 2.48 L. Also, in data set [6] (setting [11]), the k el is 1.39e-05 s⁻¹, the half-life is 882 ± 190 min and the ka is 0.20 ± 0.11 (53.2) h^−1. Besides, in data set [6] (setting [13]), the AUC0-t turned out to be 35200 ± 8360 ng·h/mL, the AUC(0-inf) stood at 36800 ± 8960 ng·h/mL, the Cmax came to 1270 ± 380 ng/mL and the Vd/F came to 34.1 ± 18.7 L. Further, in data set [6] (setting [13]), the k el was 1.39e-05 s⁻¹, the half-life is 980 ± 223 min and the ka is recorded as 0.35 ± 0.23 (66.8) h^−1. In data set [6] (setting [14]), this compound showed an AUC0-t of 62800 ± 16100 ng·h/mL, a Vd/F of 25.3 ± 11.6 L, a k el of 9.72e-06 s⁻¹ and a half-life of 1310 ± 467 min. In addition, the ka in data set [6] (setting [14]) is listed as 0.74 ± 0.31 (42.5) h^−1. Besides, in data set [6] (setting [15]), the “decrease in AUC0-t in the presence of metformin” value is 44.0%, the “decrease in AUC0-∞ in the presence of metformin” value is 45.1%, the “decrease in ka in the presence of metformin” value was 0.5 fold and the “increase in clearance in the presence of metformin” value came to 76.3%. Moreover, in data set [6] (setting [16]), the “decrease in ka with co-administered atorvastatin” value came out at 73.0%, the “decrease in t1/2 with co-administered atorvastatin” value came to 0.3 fold, the “increase in AUC0-t with co-administered atorvastatin” value amounted to 66.6% and the “increase in AUC0-∞ with co-administered atorvastatin” value turned out to be 58.7%. Also, in data set [6] (setting [16]), the “increase in AUC with co-administered atorvastatin (abstract)” value is 66.6%, the “increase in Cmax with co-administered atorvastatin” value is recorded as 134.6%, the “increase in kel with co-administered atorvastatin” value is 42.9% and the “increase in tmax with co-administered atorvastatin” value stood at 116.9%. The “decrease in sorafenib absorption with a high-fat diet” value in data set [7] (clinically important interaction) is recorded as 30%. The “share in the systemic circulation” value in [7] (sorafenib unchanged or as sorafenib N-oxide) is listed as 70−85%. In addition, the “protein-bound form in plasma” value in [8] was 99.5%.

Regarding `CN(C)C(=N)N=C(N)N` [metformin], the Cl/F in data set [9] (rat plasma, single oral metformin 100 mg/kg b.w. alone (VMET group)) is reported as 6.31 ± 1.48 (23.5) L/h. Further, in data set [9] (setting [17]), the AUC0-t is recorded as 3.64 ± 1.15 (31.6) µg × h/mL, the “AUC0-∞” value is reported as 10.88 ± 4.50 (41.4) µg × h/mL, the Cl/F is given as 5.50 ± 3.08 (56.0) L/h and the Cmax is listed as 0.46 ± 0.26 (56.5) µg/mL. Moreover, in [9] (setting [17]), the MRT0-t is recorded as 8.65 ± 2.22 (25.7) h, the Vd/F is 297.89 ± 133.23 (44.7) L, the k el was 0.03 ± 0.04 (133.3) h^−1 and the tmax is 1.88 ± 0.23 (12.2) h. The “increase in tmax with co-administered sorafenib” value in data set [9] (rats, IISOR+MET group vs VMET group) came to 71.39%. Besides, the adverse effects entry in data set [4] (100 mg/kg single oral dose) is listed as “did not cause any adverse effects”. In “in vivo”, this compound yielded an AUC0-t of 3830 ± 1230 ng·h/mL, an AUC(0-inf) of 7900 ± 1930 ng·h/mL, a Cmax of 500 ± 290 ng/mL and an MRT last of 9.81 ± 1.27 h. Besides, in the data set “in vivo”, the Vd/F amounted to 228 ± 91 L, the k el is 8.33e-06 s⁻¹ and the tmax was determined as 1.09 ± 0.57 h. Besides, in data set [8], the plasma protein-bound fraction result is recorded as “negligible”.
